Test results as given in US7981893B2, “Heteroaryl compounds, compositions thereof, and methods of treatment therewith” (Signal Pharmaceuticals, LLC, priority 2006, dated 2011).

SMILES	melting point [°C]
O=c1[nH]c2ncc(-c3ccc(O)cc3)nc2n1CC1CCOC1 (stereo not shown) [Compound 172, 6-(4-Hydroxyphenyl)-1-((tetrahydrofuran-3-yl)methyl)-1H-imidazo[4,5-b]pyrazin-2(3H)-one]	256 to 258
O=c1[nH]c2ncc(-c3ccc(-c4n[nH]c(CN5CCOCC5)n4)cc3)nc2n1CC1CCOCC1 [Compound 175, 6-(4-(5-(Morpholinomethyl)-1H-1,2,4-triazol-3-yl)phenyl)-1-((tetrahydro-2H-pyran-4-yl)methyl)-1H-imidazo[4,5-b]pyrazin-2(3H)-one]	281 to 283
O=C1CCCN1CCCn1c(=O)[nH]c2ncc(-c3ccc(O)cc3)nc21 [Compound 176, 6-(4-Hydroxyphenyl)-1-(3-(2-oxopyrrolidin-1-yl)propyl)-1H-imidazo[4,5-b]pyrazin-2(3H)-one]	305 to 306
COCc1nc(-c2ccc(-c3cnc4[nH]c(=O)n(CC5CCOCC5)c4n3)cc2)n[nH]1 [Compound 180, 6-(4-(5-(Methoxymethyl)-1H-1,2,4-triazol-3-yl)phenyl)-1-((tetrahydro-2H-pyran-4-yl)methyl)-1H-imidazo[4,5-b]pyrazin-2(3H)-one]	273 to 276
Cc1n[nH]cc1-c1cnc2[nH]c(=O)n(CC3CCOCC3)c2n1 [Compound 182, 6-(3-Methyl-1H-pyrazol-4-yl)-1-((tetrahydro-2H-pyran-4-yl)methyl)-1H-imidazo[4,5-b]pyrazin-2(3H)-one]	222 to 224

The next lines start with the values.

melting point [°C]	SMILES
238 to 240	O=c1[nH]c2ncc(-c3cn[nH]c3)nc2n1CC1CCOCC1 [Compound 183, 6-(1H-Pyrazol-4-yl)-1-((tetrahydro-2H-pyran-4-yl)methyl)-1H-imidazo[4,5-b]pyrazin-2(3H)-one]
249 to 253	CC(C)(O)c1nc(-c2ccc(-c3cnc4[nH]c(=O)n(CC5CCOCC5)c4n3)cc2)n[nH]1 [Compound 185, 6-(4-(5-(2-Hydroxypropan-2-yl)-1H-1,2,4-triazol-3-yl)phenyl)-1-((tetrahydro-2H-pyran-4-yl)methyl)-1H-imidazo[4,5-b]pyrazin-2(3H)-one]
305 to 308	CC(C)c1nc(-c2ccc(-c3cnc4[nH]c(=O)n(CC5CCOCC5)c4n3)cc2)n[nH]1 [Compound 186, 6-(4-(5-Isopropyl-1H-1,2,4-triazol-3-yl)phenyl)-1-((tetrahydro-2H-pyran-4-yl)methyl)-1H-imidazo[4,5-b]pyrazin-2(3H)-one]
367 to 370	O=c1[nH]c2ncc(-c3cnc4[nH]cnc4c3)nc2n1CC1CCOCC1 [Compound 190, 6-(3H-imidazo[4,5-b]pyridin-6-yl)-1-((tetrahydro-2H-pyran-4-yl)methyl)-1H-imidazo[4,5-b]pyrazin-2(3H)-one]
294 to 296	O=c1[nH]c2ncc(-c3ccc(-n4cccn4)cc3)nc2n1CC1CCOCC1 [Compound 192, 6-(4-(1H-Pyrazol-1-yl)phenyl)-1-((tetrahydro-2H-pyran-4-yl)methyl)-1H-imidazo[4,5-b]pyrazin-2(3H)-one]
295 to 297	O=c1[nH]c2ncc(-c3ccc(-c4nnc[nH]4)cc3)nc2n1CCN1CCOCC1 [Compound 193, 6-(4-(4H-1,2,4-Triazol-3-yl)phenyl)-1-(2-morpholinoethyl)-1H-imidazo[4,5-b]pyrazin-2(3H)-one]
> 300	O=c1[nH]c2ncc(-c3ccc(-c4nc5ccccc5[nH]4)cc3)nc2n1CC1CCOCC1 [Compound 194, 6-(4-(1H-Benzo[d]imidazol-2-yl)phenyl)-1-((tetrahydro-2H-pyran-4-yl)methyl)-1H-imidazo[4,5-b]pyrazin-2(3H)-one]
258 to 260	O=c1[nH]c2ncc(-c3ccc(-c4n[nH]c(CO)n4)cc3)nc2n1CC1CCOCC1 [Compound 196, 6-(4-(5-(Hydroxymethyl)-1H-1,2,4-triazol-3-yl)phenyl)-1-((tetrahydro-2H-pyran-4-yl)methyl)-1H-imidazo[4,5-b]pyrazin-2(3H)-one]
